In PubChem BioAssay AID493181 (Southern Research Specialized Biocontainment Screening …, 2011) one finds IC50, IC90 and inhibition data, which are given here for 30 compounds.

Active and inactive are the calls of the source. The rule behind the calls is not given here. Where a SMILES comes first, the peptide text is derived from it. The star is where a group is joined. Cbz = O=C(OCc1ccccc1)*

Test [1] deals with M. tuberculosis H37Rv growth inhibition, no glycerol. Nature of the test: M. tuberculosis growth inhibition, confirmation, H37Rv, purified and synthesized compounds (AID 493181). To be noted: for IC90: 90% growth inhibition concentration.
Experiment in test [2]: as above
To be noted: M. tuberculosis H37Rv growth inhibition, no glycerol; at 100 µM (top of the series).

On to `CCOC(=O)CNC(=O)[C@H](Cc1ccccc1)NC(=O)OCc1ccccc1` (Cbz-Phe-Gly-OEt), for which, in test [1], the IC50 is 1410 nM and the IC90 came out at 2110 nM. On the same counts, the results for `CCc1ccc(/C=C2/C(=O)N(C)C(=S)N2CC(=O)OC)s1` are 2950 nM and 7160 nM. On the same counts, the results for `CNc1nc(SCc2ccccc2Cl)nc2c1CCCC2` are under 200 nM and 2320 nM.

On to `O=C(/C=C/c1ccccc1)N1CCN(CCN2C(=O)c3cccc4cccc(c34)C2=O)CC1`, for which, in test [1], the IC50 is 3170 nM and the IC90 was over 100000 nM. For `Cc1cccc(/C=C/C(=O)c2ccc([N+](=O)[O-])o2)c1`, in that order: under 200 nM and under 200 nM. On the same counts, the results for `O=C(NCC(c1cccs1)N1CCOCC1)c1cc([N+](=O)[O-])cc([N+](=O)[O-])c1` (centres undefined) are under 200 nM and 780 nM. On the same counts, the results for `O=C(CSc1nc2ccccc2c(=O)[nH]1)NCc1ccc(Cl)cc1` are 390 nM and 1820 nM. With `COC(=O)C1CC(=O)N(c2ccc(OCc3ccccc3Cl)cc2)C1` (centres undefined), in test [1], the half-inhibitory concentration (IC50) was 830 nM and the IC90 amounted to 8400 nM. For `CCC(C)Nc1ccc(NC(C)CC)cc1` (centres undefined), in that order: 1100 nM and 1500 nM. On the same counts, the results for `Cc1ccc2c(c1)c(C1=c3ccccc3=NC1=O)c(O)n2C` are 840 nM and 1470 nM. `Oc1ccccc1/C=N/Nc1ccnc(SCc2ccccc2)n1`: in test [2], the inhibition is 0.65% (inactive).

On to `O=C(/C=C\c1cccs1)N1CCN(Cc2ccc3c(c2)OCO3)CC1`, for which, in test [1], the IC50 is under 200 nM and the IC90 came to 2780 nM. On the same counts, the results for `S=c1nc[nH]c2nc[nH]c12` are 1500 nM and 1650 nM. For the compound `CCOC(=O)C(C)Sc1ncnc2c1nnn2-c1ccc(F)cc1` (centres undefined), in test [1], the IC50 is 1380 nM and the IC90 came to 3380 nM.

`COC(=O)C(C)Oc1ccc(-c2nccc(-c3ccccn3)n2)cc1` (centres undefined): in test [1], the IC50 is 1490 nM and the IC90 is 3310 nM. For `O=C1C(Br)=Cc2cccc3cccc1c23`, in that order: under 200 nM and under 200 nM. On the same counts, the results for `CCOC(=O)COc1ccc(/C=C2\NC(=S)N(CC)C2=O)cc1` are 1930 nM and 3450 nM. Consider `CC(=NCc1ccc2c(c1)OCO2)C1=C(O)c2ccccc2C1=O`, for which, in test [1], the IC50 was under 200 nM and the IC90 came out at 2600 nM. With `CCOC(=O)c1ccc(NC(=O)Cn2ncc(Cl)c(Cl)c2=O)cc1`, in test [1], the IC50 is under 200 nM and the IC90 stood at 1550 nM.

As for `Cc1nc(SCC(=O)NC2CCCCC2)[nH]c(=O)c1C`, in test [1], the concentration for half-maximal inhibition (IC50) is under 200 nM and the IC90 was found to be 540 nM. For `O=C(CSc1nc2ccccc2c(=O)[nH]1)NC1CCCCC1`, in that order: under 200 nM and under 200 nM.

For the compound `c1ccc(/N=C2\N=C(Nc3ccccn3)c3ccccc32)nc1`, in test [1], the IC50 was under 200 nM and the 90% effect concentration (IC90) was under 200 nM. Consider `COC(=O)CCc1nc2c(C#N)c(-c3ccc(Cl)cc3)ccn2n1`, for which, in test [1], the IC50 was 760 nM and the IC90 turned out to be 7910 nM.

In the case of `Cc1nn2c(NCc3ccccn3)cc(C(C)C)nc2c1-c1ccccc1`, in test [1], the IC50 was 1480 nM and the IC90 was determined as 2670 nM. On the same counts, the results for `COC(=O)c1cc(=O)n(-c2ccc(F)cc2)c(=Nc2ccc(F)cc2)s1` are under 200 nM and 4510 nM. On the same counts, the results for `CC(C)NC(=O)c1sc(=S)n2c1[nH]c(=O)c1ccc(C(=O)NCCc3ccc(Cl)cc3)cc12` are under 200 nM and 1510 nM. For the compound `Cc1ccc(NC(=O)C2C3/C=C\CCCCC32)cc1C` (centres undefined), in test [1], the IC50 was 1480 nM and the IC90 was determined as 1680 nM. On to `COc1cc(NC(=O)C/C(C)=N/NC(=O)c2ccccn2)c(OC)cc1Cl`, for which, in test [1], the IC50 was 3690 nM and the IC90 came out at 8340 nM. On the same counts, the results for `Cc1ccc2ccc3ccc(C)nc3c2n1` are under 200 nM and 920 nM. For `CCOC(=O)COn1c2c(c3c4no[n+]([O-])c4ccc31)CCCC2`, in that order: 2140 nM and 3780 nM.
